{"source": "ChEMBL document CHEMBL1137783", "about": "(J Med Chem, 2009)", "data": [{"biological_target": "T1, hERG (KCNH2) (Homo sapiens, UniProt Q12809)", "T1 sequence (Q12809 whole entry)": "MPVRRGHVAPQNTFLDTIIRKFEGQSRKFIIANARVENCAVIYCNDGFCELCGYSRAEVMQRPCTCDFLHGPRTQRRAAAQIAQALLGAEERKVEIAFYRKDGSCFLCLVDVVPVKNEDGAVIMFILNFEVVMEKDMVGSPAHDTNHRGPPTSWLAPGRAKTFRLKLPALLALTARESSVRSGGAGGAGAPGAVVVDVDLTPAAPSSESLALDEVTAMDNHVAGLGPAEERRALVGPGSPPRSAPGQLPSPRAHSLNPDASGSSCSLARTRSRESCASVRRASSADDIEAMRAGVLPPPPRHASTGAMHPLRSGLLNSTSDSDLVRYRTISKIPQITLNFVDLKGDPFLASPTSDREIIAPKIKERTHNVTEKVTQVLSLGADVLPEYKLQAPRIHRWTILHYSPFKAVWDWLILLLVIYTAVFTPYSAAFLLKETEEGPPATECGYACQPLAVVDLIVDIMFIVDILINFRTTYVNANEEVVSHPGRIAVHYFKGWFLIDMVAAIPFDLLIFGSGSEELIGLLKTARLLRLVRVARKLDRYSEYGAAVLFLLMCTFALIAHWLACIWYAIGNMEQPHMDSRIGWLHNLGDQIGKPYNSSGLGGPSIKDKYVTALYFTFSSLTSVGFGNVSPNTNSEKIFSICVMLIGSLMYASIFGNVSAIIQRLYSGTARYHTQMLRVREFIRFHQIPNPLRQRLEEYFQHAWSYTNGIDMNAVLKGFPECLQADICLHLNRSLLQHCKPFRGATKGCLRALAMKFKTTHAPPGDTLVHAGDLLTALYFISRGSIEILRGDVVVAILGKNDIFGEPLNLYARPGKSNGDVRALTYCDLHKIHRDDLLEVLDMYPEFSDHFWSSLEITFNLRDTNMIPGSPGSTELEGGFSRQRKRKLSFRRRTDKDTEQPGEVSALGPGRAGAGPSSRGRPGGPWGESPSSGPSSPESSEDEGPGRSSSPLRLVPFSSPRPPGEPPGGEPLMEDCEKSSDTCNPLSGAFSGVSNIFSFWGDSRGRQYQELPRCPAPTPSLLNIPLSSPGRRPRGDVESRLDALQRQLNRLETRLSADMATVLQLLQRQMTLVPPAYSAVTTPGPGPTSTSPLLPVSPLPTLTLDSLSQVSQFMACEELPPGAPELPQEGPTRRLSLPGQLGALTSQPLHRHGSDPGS", "test": "Inhibition of human ERG channel at 300 uM", "conditions": "not given", "units": {"inhibition at 300 µM": "%"}, "values": [{"smiles": "Cc1nnc(C(C)C)n1C1CC2CCC(C1)N2CC[C@H](NC(=O)C1CCC1)c1ccccc1", "note": "(some centres undefined)", "inhibition at 300 µM": 30}, {"smiles": "Cc1nnc(C(C)C)n1C1CC2CCC(C1)N2CC[C@H](NC(=O)C1CCCC1)c1ccccc1", "note": "(some centres undefined)", "inhibition at 300 µM": 18}, {"smiles": "Cc1nnc(C(C)C)n1C1CC2CCC(C1)N2CC[C@H](NC(=O)CCC(F)(F)F)c1ccccc1", "note": "(some centres undefined)", "inhibition at 300 µM": 14}]}, {"biological_target": "T1, hERG (KCNH2)", "test": "Inhibition of human ERG channel at 3 uM", "conditions": "not given", "units": {"inhibition at 3 µM": "%"}, "values": [{"smiles": "CC(C)(CO)NC(=O)[C@H]1CC[C@H](c2nc(-c3cccc(C(F)(F)F)c3)c[nH]2)CC1", "inhibition at 3 µM": 6}]}, {"biological_target": "T1, hERG (KCNH2)", "test": "(§1) Inhibition of human ERG channel", "conditions": "human", "units": {"Ki": "nM"}, "values": [{"smiles": "c1ccc(-c2[nH]c3ccccc3c2C2CCNCC2)cc1", "Ki": 5700}, {"smiles": "Fc1ccc(-c2[nH]c3cc(F)ccc3c2C2CCCNC2)cc1", "note": "(centres undefined)", "Ki": 1300}, {"smiles": "CN1CCCC(c2c(-c3ccccc3)[nH]c3ccccc23)C1", "note": "(centres undefined)", "Ki": 9600}, {"smiles": "Fc1ccc2c([C@@H]3CNCC[C@H]3F)c(-c3cccc4ccccc34)[nH]c2c1", "Ki": 110}, {"smiles": "Fc1ccc2c([C@@H]3CNCC[C@H]3F)c(-c3ccc4ccccc4c3)[nH]c2c1", "Ki": 500}, {"smiles": "Fc1ccc2c([C@@H]3CNCC[C@H]3F)c(-c3ccsc3)[nH]c2c1", "Ki": 1500}, {"smiles": "Fc1ccc(-c2[nH]c3cc(F)ccc3c2[C@@H]2CNCC[C@H]2F)cc1", "Ki": 1600}]}, {"biological_target": "Voltage-gated inwardly rectifying potassium channel KCNH2 (Homo sapiens, UniProt Q12809)", "sequence (Q12809 whole entry)": "as above", "test": "as §1", "conditions": "not given", "units": {"IC50": "nM", "Ki": "nM"}, "values": [{"smiles": "C[N+]1([O-])CCN(C2=Nc3cc(Cl)ccc3Nc3ccccc32)CC1", "IC50": 133000}, {"smiles": "CN1Cc2cncn2Cc2ccc(C#N)c(c2)Oc2ccc3c(c2)[C@@H](CC3)N2CC[C@@H]1C2=O", "IC50": 2600}, {"smiles": "Fc1ccc2[nH]c(-c3ccccc3)c([C@@H]3CNCC[C@H]3F)c2c1", "Ki": 7000}, {"smiles": "c1ccc(-c2[nH]c3ccccc3c2C2CC3CCC(C2)N3)cc1", "note": "(centres undefined)", "Ki": 18}, {"smiles": "CC(=O)Nc1cccc(N2CCN(CCCCNS(=O)(=O)CC3CCCCC3)CC2)c1", "note": "[NALUZOTAN]", "IC50": 3800}, {"smiles": "Cc1cc2c(s1)Nc1ccccc1N=C2N1CCN(C)CC1", "note": "[OLANZAPINE]", "IC50": 231}]}, {"biological_target": "Voltage-gated inwardly rectifying potassium channel KCNH2 (Homo sapiens, UniProt Q12809)", "test": "as §1", "conditions": "human", "values": [{"smiles": "C[N+]1([O-])CCN(C2=Nc3cc(Cl)ccc3Nc3ccccc32)CC1", "pIC50": 3.875}, {"smiles": "Cc1cc2c(s1)Nc1ccccc1N=C2N1CCN(C)CC1", "note": "[OLANZAPINE]", "pIC50": 6.636}]}]}
